Source: patent US20240165282A1, “CONFORMATIONAL CONSTRAINED SOMATOSTATIN RECEPTOR 3 PEPTIDE LIGANDS AND THEIR CONJUGATES AND USES THEREOF” (STARGET PHARMA LTD., priority 2021, published 2024)
Where “and” joins values, the source holds several entries; their conditions need not be identical. Equal values may be shown once. *1 amine or outer side, *2 acyl side, *3 side chain or, on linkers, in order; H or OH if unused. Bridges are numbered along the chain shown (N, C = ends). [ ]: non-standard residue; d: D form. The star is where a group is joined. DOTA = O=C(O)CN1CCN(CC(=O)O)CCN(CC(=O)*)CCN(CC(=O)O)CC1; N(2-mercaptoethyl)Gly = O=C(CN(CCS[*:3])[*:1])[*:2]; GABA = NCCCC(=O)O

Experiments:
insulin release = experiment: Glucose induced insulin release in rats; type: in vivo, Wistar rats; settings: S.C. 100-1000 microgram/kg, glucose stimulation
Procedure: In vivo determination of the pharmacodynamic properties of SSTR3 analogs was carried out in rats, according to known procedures (Afargan M. et al., 2001, Pless J. et al 1986).
Adult male Wistar rats weighing 200-220 g, were maintained on a constant light-dark cycle (light from 8:00 to 20:00 h), temperature (21±3° C.), and relative humidity (55±10%). Laboratory chow and tap water were available ad libitum. All animals in the study were fasted overnight, animals were placed in cages with metal mesh to prevent coprophagia with free access to water. On the day of the experiment, rats were anesthetized with Nembutal (IP, 60 mg/kg). Ten minutes after anesthesia, drugs were administrated S.C. at 100-1000 microgram/kg dose. At 10 minutes after drugs administration the stimulation of GH and glucagon release were carried out by i.v. bolus administration of 0.5 g/kg L-arginine, stimulation of insulin release was carried out in separate animal groups that received i.v. bolus of 0.5 g/kg of glucose. Terminal blood samples in EDTA were collected at 5 minutes after stimulation. Blood samples were and centrifuged immediately. Plasma was separated and kept frozen at −20° C. until assayed.
Rat growth hormone (rGH), glucagon and insulin levels were determined by commercial ELISA kits using the Millipore ELISA kits (Billerica, MA, USA). The ELISA kit for rat plasma GH, Millipore, Cat. No. EZRMGH-45K was performed according to the validated detection method of colorimetric sandwich ELISA protocol (Supriya S. et al., 2013). The ELISA kit for rat plasma insulin, Millipore Cat. No. MMEZRMI13K (Merck) was performed according to the validated detection method of fluorescent colorimetric protocol (Xu, P.Z. et al., 2012). The ELISA kit for rat plasma glucagon, Millipore, Cat. No. EZGLU-35 was performed according to the validated detection method of chemiluminescent sandwich ELISA protocol (Soyeon Y. et al., 2021).
Data analysis of rat plasma GH, glucagon and insulin levels was evaluated by the averaged plasma hormones levels of each group. […] Results are expressed as the mean±SEM.

hSSTR-4 = target: T1, hSSTR-4 (Homo sapiens, UniProt P31391); experiment: Radioligand binding, displacement of 125I-Tyr11-SRIF-14; settings: hSSTR-4
T1 construct: host or cells: Chem-1 (Rat ChemiSCREEN) cells, membrane preparation
T1 sequence (P31391 whole entry): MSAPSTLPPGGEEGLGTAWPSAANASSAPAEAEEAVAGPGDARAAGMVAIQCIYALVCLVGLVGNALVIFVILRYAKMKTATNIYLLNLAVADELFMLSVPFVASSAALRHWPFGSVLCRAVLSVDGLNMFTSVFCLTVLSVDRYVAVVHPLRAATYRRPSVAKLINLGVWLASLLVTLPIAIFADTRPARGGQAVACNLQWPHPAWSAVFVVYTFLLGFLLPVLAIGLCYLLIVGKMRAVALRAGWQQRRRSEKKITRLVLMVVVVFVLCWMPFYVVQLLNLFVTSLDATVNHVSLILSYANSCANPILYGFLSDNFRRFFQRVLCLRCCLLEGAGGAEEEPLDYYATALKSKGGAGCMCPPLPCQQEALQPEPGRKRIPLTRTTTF
Excerpt: (§1) The binding to human cloned receptors SSTR-1, or SSTR-2 or SSTR-3 evaluated in stable and selective transfected CHO (Chinese Hamster Ovary) cells and binding to STSR-4 and SSTR-5 in stable and selective transfected Chem-1 (Rat ChemiSCREEN) cells. […] The binding reactions were filtered, the filters were washed, and the bound radioactivity was counted using a gamma counter.
(§2) The following table depicts the conditions of binding assay to each of the somatostatin receptors used for the evaluations of binding affinities of the tested peptides. All assays were performed by quantitation method of radioligand binding under 25° C. The vehicle was 1% DMSO, the incubation buffer was 25 mM HEPES, pH 7.4, 5 mM MgCl2, 1 mM CaCl2, 0.1% BSA. […] The significance criteria were >50% of max inhibition. […] This specific binding data used for calculation of Bmax values which is the concentration of each of the expressed cloned receptor in its transfected cell system.
(§3) The Results of IC50 values were determined by a non-linear, least squares regression analysis using MathIQ™ (ID Business Solutions Ltd., UK). […] The Hill coefficient (nH), defining the slope of the competitive binding curve, was calculated using MathIQ™.

SSTR5 = SSTR5 (Homo sapiens, UniProt P35346); experiment: as above; set-up: host or cells: Chem-1 (Rat ChemiSCREEN) cells, membrane preparation; settings: hSSTR-5
Chain of SSTR5 (P35346 whole entry): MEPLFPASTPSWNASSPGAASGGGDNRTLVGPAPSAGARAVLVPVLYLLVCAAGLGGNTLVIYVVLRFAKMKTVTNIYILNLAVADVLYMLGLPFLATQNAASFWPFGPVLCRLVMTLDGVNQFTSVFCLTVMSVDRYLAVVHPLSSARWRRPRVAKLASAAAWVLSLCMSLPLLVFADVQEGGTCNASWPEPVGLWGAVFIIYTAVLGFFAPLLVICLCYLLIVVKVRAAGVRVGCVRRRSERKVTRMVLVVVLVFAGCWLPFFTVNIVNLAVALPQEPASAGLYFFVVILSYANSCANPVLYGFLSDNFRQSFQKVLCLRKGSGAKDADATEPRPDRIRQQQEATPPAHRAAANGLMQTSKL
Excerpt: as §1, §2, §3

SSTR3 = SSTR3 (Homo sapiens, UniProt P32745); experiment: as above; set-up: host or cells: CHO (Chinese Hamster Ovary) cells, membrane preparation; settings: for affinity and selectivity to SSTR3 (in words): binding data; for % displacement of [^125I] Tyr^11-SRIF-14: hSSTR-3
Chain of SSTR3 (P32745 whole entry): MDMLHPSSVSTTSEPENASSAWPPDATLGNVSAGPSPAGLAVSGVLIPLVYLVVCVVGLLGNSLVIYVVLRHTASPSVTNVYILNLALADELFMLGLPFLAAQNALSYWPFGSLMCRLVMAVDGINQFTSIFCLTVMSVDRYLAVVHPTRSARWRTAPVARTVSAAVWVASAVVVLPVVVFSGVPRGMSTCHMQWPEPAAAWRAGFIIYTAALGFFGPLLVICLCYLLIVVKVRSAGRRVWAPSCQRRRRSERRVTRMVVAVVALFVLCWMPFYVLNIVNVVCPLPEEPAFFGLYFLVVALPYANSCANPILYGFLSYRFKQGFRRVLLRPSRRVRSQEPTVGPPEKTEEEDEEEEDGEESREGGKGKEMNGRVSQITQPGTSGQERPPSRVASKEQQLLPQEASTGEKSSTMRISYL
Excerpt: as §1, §2, §3

SSTR1 = SSTR1 (Homo sapiens, UniProt P30872); experiment: as above; set-up: host or cells: CHO (Chinese Hamster Ovary) cells, membrane preparation; settings: hSSTR-1
Chain of SSTR1 (P30872 whole entry): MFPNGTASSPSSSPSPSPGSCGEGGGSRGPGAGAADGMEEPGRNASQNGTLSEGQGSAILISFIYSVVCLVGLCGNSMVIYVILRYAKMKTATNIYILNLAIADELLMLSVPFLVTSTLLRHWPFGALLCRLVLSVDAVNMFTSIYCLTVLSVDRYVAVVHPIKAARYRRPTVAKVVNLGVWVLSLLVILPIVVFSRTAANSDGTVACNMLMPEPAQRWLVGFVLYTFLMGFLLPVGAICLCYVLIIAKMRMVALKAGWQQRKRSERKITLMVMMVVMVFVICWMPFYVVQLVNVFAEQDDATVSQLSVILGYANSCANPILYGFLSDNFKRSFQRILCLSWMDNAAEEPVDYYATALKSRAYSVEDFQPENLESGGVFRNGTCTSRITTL
Excerpt: as §1, §2, §3

SSTR2 = SSTR2 (Homo sapiens, UniProt P30874); experiment: as above; set-up: host or cells: CHO (Chinese Hamster Ovary) cells, membrane preparation; settings: hSSTR-2
Chain of SSTR2 (P30874 whole entry): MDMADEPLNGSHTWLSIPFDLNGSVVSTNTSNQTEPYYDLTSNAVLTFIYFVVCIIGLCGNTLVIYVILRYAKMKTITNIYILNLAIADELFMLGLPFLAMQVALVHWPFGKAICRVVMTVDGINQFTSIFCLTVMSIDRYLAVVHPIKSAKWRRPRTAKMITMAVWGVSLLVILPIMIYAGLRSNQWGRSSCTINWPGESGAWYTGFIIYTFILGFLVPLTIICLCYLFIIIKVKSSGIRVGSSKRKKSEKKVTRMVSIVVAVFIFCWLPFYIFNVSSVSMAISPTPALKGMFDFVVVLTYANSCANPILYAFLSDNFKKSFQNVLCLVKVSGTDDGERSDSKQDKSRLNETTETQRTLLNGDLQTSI
Excerpt: as §1, §2, §3

SSTR3-tGFP-U2OS cells = experiment: Cellular internalization of 177Lu radiolabeled compounds; type: cell-based, human; settings: 4 h
Procedure: In order to evaluate the cellular internalization of the ^177Lu radiolabeled SEQ ID NO: 6 in comparison to SEQ ID NO: 19 in SSTR3 transfected human cancer cell line to predict the tumor uptake of the radiolabeled compounds, the following example was performed.
Comparative SSTR3 receptor mediated internalization, was determined by incubation of the cultivate cancer cells with the ^177Lu radiolabeled compounds and determination of cellular uptake following washes of the cell culture. To evaluate the internalization as a receptor mediated process, the same experiments were performed in the presence of high concentration of cold SSTR3 ligands.
U2OS cells grow as a monolayer at +37° C. in a humidified atmosphere (5% CO2, 95% air). U2OS cancer cells are adherent to plastic flasks. For experimental use, these cancer cells are detached from the culture flask by a 5-minute treatment with trypsin-versene, in Hanks' medium without calcium or magnesium and neutralized by addition of complete culture medium.
The assay was performed as follows: Transfected human osteosarcoma cells SSTR3-tGFP-U2OS were plated in 6 well plate, 24 hours before the assay to have 80-90% confluency at the day of the assay. 30 minutes before the assay, medium was removed, and cells were washed with tempered Dulbecco's Phosphate Buffered Saline (DPBS, Sigma) and fresh medium (250 μL) is added. For total cellular uptake, 20 nM of the radioligand SEQ ID NO: 6 or SEQ ID NO: 19 were diluted in cell medium (250 μL) added to each well, in triplicate (final radioligand concentration: 10 nM). For non-specific binding, 20 μM (1000 in excess) of cold SEQ ID NO: 4 or cold SEQ ID NO: 6 or SEQ ID NO: 1 and 20 nM of ^177Lu-DOTA-PTR-58 radioligand solution in cell medium (250 μL) were added to each well, in triplicate (final cold peptide concentration: 10 μM; final radioligand concentration: 10 nM). The plates were incubated for 4 hours at +37° C. (air containing 5% CO2, humidified atmosphere). At the end of incubation, the plates were placed on ice to stop any internalization process. The medium, containing the free radioligand fraction, was collected and the cells were washed twice (2×750 μL) with ice-cold DPBS. The medium and the PBS washes were collected in the same vial from each well (final volume […]). The radioactivity of the cell pellets was counted by gamma counter and represents the cellular uptake as percentage of the administrated radioactivity. The radioactivity readouts of the wash-media were used for mass balance.

| Molecule | effect on insulin release (insulin release) | % displacement of [^125I] Tyr^11-SRIF-14 (hSSTR-4; at 1 nM (in brackets)) | % displacement of [^125I] Tyr^11-SRIF-14 (hSSTR-4; at 10 nM) | % displacement of [^125I] Tyr^11-SRIF-14 (SSTR5; at 1 nM (in brackets)) | % displacement of [^125I] Tyr^11-SRIF-14 (SSTR5; at 10 nM) | affinity to SSTR3 (SSTR3) | affinity and selectivity to SSTR3 (in words) (SSTR3) | % displacement of [^125I] Tyr^11-SRIF-14 (SSTR3; at 1 nM (in brackets)) | % displacement of [^125I] Tyr^11-SRIF-14 (SSTR3; at 10 nM) | % displacement of [^125I] Tyr^11-SRIF-14 (SSTR1; at 1 nM (in brackets)) | % displacement of [^125I] Tyr^11-SRIF-14 (SSTR1; at 10 nM) | % displacement of [^125I] Tyr^11-SRIF-14 (SSTR2; at 1 nM (in brackets)) | % displacement of [^125I] Tyr^11-SRIF-14 (SSTR2; at 10 nM) | % Total cellular uptake (SSTR3-tGFP-U2OS cells; 177Lu radiolabeled, 10 nM, no blocking) | % Total cellular uptake (SSTR3-tGFP-U2OS cells; 177Lu radiolabeled, 10 nM, no blocking, listed as 177Lu radiolabeled SEQ ID NO. 6) | % Total cellular uptake (SSTR3-tGFP-U2OS cells; + SEQ ID NO: 4 (cold 69/71Ga for blocking)) | % Total cellular uptake (SSTR3-tGFP-U2OS cells; + SEQ ID NO: 6 (cold 175Lu for blocking)) |
| --- | --- | --- | --- | --- | --- | --- | --- | --- | --- | --- | --- | --- | --- | --- | --- | --- | --- |
| C[C@@H](O)[C@@H]1NC(=O)[C@H](CCCCN)NC(=O)[C@@H](Cc2c[nH]c3ccccc23)NC(=O)[C@H](Cc2ccccc2)NC(=O)[C@@H](NC(=O)[C@H](N)Cc2ccccc2)CSSC[C@@H](C(=O)N[C@H](CO)[C@@H](C)O)NC1=O [octreotide, reference compound] | exhibits anti-secretagogue effect of pancreatic release of insulin |  |  |  |  |  |  |  |  |  |  |  |  |  |  |  |  |
| Niraparib-CO(CH2)3CO-D-Phe^1-Arg^2-Cys^3-Phe^4-D-Trp^5-Lys^6-Thr^7-Phe^8-NTEG^9-NH2 cyclo 3-9 [SEQ ID NO: 28] |  | 0(0) % | 0(0) % | 0(0) % | 0(0) % | ≤ 10 nM | the same selectivity to SSTR3 as SEQ ID NO: 1 | 28% | 79% | 12% | 23% | 0(0) % | 0(0) % |  |  |  |  |
| ^177Lu -SEQ ID NO: 6 ({DOTA}-[dF]RCF[dW]KTF[N(2-mercaptoethyl)Gly]-NH2; disulfide 3-9; also: 177Lu complex of DOTA) |  |  |  |  |  |  |  |  |  |  |  |  |  | 15.5 ± 0.28% and 22.1 ± 0.5% | 22% | 0.9 ± 0.02% | 0.6 ± 0.02% |
| gallium labelled DOTA-GABA-D-Phe^1-Arg^2-Cys^3-Phe^4-D-Trp^5-Lys^6-Thr^7-Phe^8-NTEG^9-NH2 (cyclo 3-9) ({DOTA-GABA}-[dF]RCF[dW]KTF[N(2-mercaptoethyl)Gly]-NH2; disulfide 3-9; also: gallium complex of DOTA) [SEQ ID NO: 8] |  | 5% | 4% | 0% | 15% |  | maintains the same affinity and selectivity to SSTR3 as SEQ ID NO. 1, and SEQ ID NO. 3-7 | 61% | 88% | 0% | 10% | 0% | 10% |  |  |  |  |
